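Values below derive from 48-hour exposures of cells grown in 96-well plates, with endpoints linearly interpolated between the two concentrations bracketing the appropriate inhibition level. The concentration for full growth arrest is given as TGI.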
Assays:
Assay in all cases: NCI tumour cell line growth inhibition, 48 h
[1] = system: NCI-H23 lung
[2] = system: SR leukemia
[3] = system: HS 578T breast
[4] = system: K-562 leukemia
[5] = system: M14 melanoma
[6] = system: MDA-MB-231 breast
[7] = system: SN12C renal
[8] = system: NCI/ADR-RES ovarian
[9] = system: UACC-257 melanoma
[10] = system: SK-MEL-28 melanoma
[11] = system: OVCAR-4 ovarian
[12] = system: SNB-19 CNS
[13] = system: MCF7 breast
[14] = system: T-47D breast
[15] = system: SF-295 CNS
[16] = system: U251 CNS
[17] = system: NCI-H226 lung
[18] = system: A549 NSCLC
[19] = system: KM12 colon
[20] = system: NCI-H522 lung
[21] = system: LOX IMVI melanoma
[22] = system: COLO 205 colon
[23] = system: SK-OV-3 ovarian
[24] = system: OVCAR-8 ovarian
[25] = system: SNB-75 CNS
[26] = system: HOP-92 NSCLC
[27] = system: MDA-N
[28] = system: ACHN renal
[29] = system: A498 renal
[30] = system: HCT-116 colon
[31] = system: TK-10 renal
[32] = system: MOLT-4 leukemia
[33] = system: HCC-2998 colon
[34] = system: SF-268 CNS
[35] = system: PC-3 prostate
[36] = system: SW-620 colon
[37] = system: UO-31 renal
[38] = system: SK-MEL-5 melanoma
[39] = system: OVCAR-3 ovarian
[40] = system: NCI-H460 lung
[41] = system: DU-145 prostate
[42] = system: HT29 colon
[43] = system: HCT-15 colon
[44] = system: MDA-MB-435
[45] = system: CCRF-CEM leukemia
[46] = system: RXF 393 renal
[47] = system: CAKI-1 renal
[48] = system: UACC-62 melanoma
[49] = system: EKVX NSCLC
[50] = system: IGROV1 ovarian
[51] = system: HOP-62 NSCLC
[52] = system: 786-0 renal
[53] = system: MALME-3M melanoma
[54] = system: RPMI-8226 leukemia
[55] = system: HL-60(TB) leukemia
[56] = system: OVCAR-5 ovarian
[57] = system: SF-539 CNS
[58] = system: SK-MEL-2 melanoma

## Nc1c(Br)cc2c(c1Br)Cc1cc(Br)ccc1-2
[1]
  TGI: > 100 µM
[2]
  TGI: > 100 µM
[3]
  TGI: > 100 µM
[4]
  TGI: > 100 µM
[5]
  TGI: > 100 µM
[6]
  TGI: > 100 µM
[7]
  TGI: > 100 µM
[8]
  TGI: > 100 µM
[9]
  TGI: > 100 µM
[10]
  TGI: > 100 µM
[11]
  TGI: > 100 µM
[12]
  TGI: > 100 µM
[13]
  TGI: > 100 µM
[14]
  TGI: > 100 µM
[15]
  TGI: > 100 µM
[16]
  TGI: > 100 µM
[17]
  TGI: > 100 µM
[18]
  TGI: > 100 µM
[19]
  TGI: > 100 µM
[20]
  TGI: > 100 µM
[21]
  TGI: > 100 µM
[22]
  TGI: > 100 µM
[23]
  TGI: > 100 µM
[24]
  TGI: > 100 µM
[25]
  TGI: > 100 µM
[26]
  TGI: > 100 µM
[27]
  TGI: > 100 µM
[28]
  TGI: > 100 µM
[29]
  TGI: > 100 µM
[30]
  TGI: > 100 µM
[31]
  TGI: > 100 µM
[32]
  TGI: > 100 µM
[33]
  TGI: > 100 µM
[34]
  TGI: > 100 µM
[35]
  TGI: > 100 µM
[36]
  TGI: > 100 µM
[37]
  TGI: > 100 µM
[38]
  TGI: > 100 µM
[39]
  TGI: > 100 µM
[40]
  TGI: > 100 µM
[41]
  TGI: > 100 µM
[42]
  TGI: > 100 µM
[43]
  TGI: > 100 µM
[44]
  TGI: > 100 µM
[45]
  TGI: > 100 µM
[46]
  TGI: > 100 µM

## O=C(Nc1ccccn1)/C(=C\C(=O)c1ccc(Cl)cc1)Nc1ccccc1
[1]
  TGI: > 10 µM
[2]
  TGI: > 10 µM
[47]
  TGI: > 10 µM
[4]
  TGI: > 10 µM
[5]
  TGI: > 10 µM
[6]
  TGI: > 10 µM
[7]
  TGI: > 10 µM
[9]
  TGI: > 10 µM
[10]
  TGI: > 10 µM
[11]
  TGI: > 10 µM
[13]
  TGI: > 10 µM
[14]
  TGI: > 10 µM
[15]
  TGI: > 10 µM
[48]
  TGI: > 10 µM
[49]
  TGI: > 10 µM
[18]
  TGI: > 10 µM
[19]
  TGI: > 10 µM
[50]
  TGI: > 10 µM
[51]
  TGI: > 10 µM
[21]
  TGI: > 10 µM
[22]
  TGI: > 10 µM
[23]
  TGI: > 10 µM
[24]
  TGI: > 10 µM
[25]
  TGI: > 10 µM
[26]
  TGI: > 10 µM
[27]
  TGI: > 10 µM
[31]
  TGI: > 10 µM
[32]
  TGI: > 10 µM
[33]
  TGI: > 10 µM
[34]
  TGI: > 10 µM
[52]
  TGI: > 10 µM
[35]
  TGI: > 10 µM
[53]
  TGI: > 10 µM
[54]
  TGI: > 10 µM
[36]
  TGI: > 10 µM
[55]
  TGI: > 10 µM
[38]
  TGI: > 10 µM
[41]
  TGI: > 10 µM
[42]
  TGI: > 10 µM
[43]
  TGI: > 10 µM
[44]
  TGI: > 10 µM
[45]
  TGI: > 10 µM
[46]
  TGI: > 10 µM

## O=C(CCC(C(=O)OCc1ccccc1)C(=O)OCc1ccccc1)Nc1ccc(OCc2ccccc2)cc1
[1]
  TGI: > 100 µM
[2]
  TGI: > 100 µM
[3]
  TGI: > 100 µM
[47]
  TGI: > 100 µM
[4]
  TGI: > 100 µM
[5]
  TGI: > 100 µM
[6]
  TGI: > 100 µM
[56]
  TGI: > 100 µM
[7]
  TGI: > 100 µM
[8]
  TGI: > 100 µM
[9]
  TGI: > 100 µM
[10]
  TGI: > 100 µM
[11]
  TGI: > 100 µM
[12]
  TGI: > 100 µM
[13]
  TGI: 32.8 µM
[14]
  TGI: > 100 µM
[15]
  TGI: > 100 µM
[16]
  TGI: > 100 µM
[48]
  TGI: > 100 µM
[49]
  TGI: > 100 µM
[17]
  TGI: > 100 µM
[18]
  TGI: > 100 µM
[19]
  TGI: > 100 µM
[20]
  TGI: > 100 µM
[50]
  TGI: > 100 µM
[51]
  TGI: > 100 µM
[57]
  TGI: > 100 µM
[21]
  TGI: > 100 µM
[22]
  TGI: > 100 µM
[23]
  TGI: > 100 µM
[24]
  TGI: 34 µM
[25]
  TGI: > 100 µM
[26]
  TGI: > 100 µM
[27]
  TGI: > 100 µM
[28]
  TGI: > 100 µM
[29]
  TGI: > 100 µM
[30]
  TGI: 27.3 µM
[31]
  TGI: > 100 µM
[32]
  TGI: > 100 µM
[33]
  TGI: > 100 µM
[34]
  TGI: > 100 µM
[52]
  TGI: 32.2 µM
[35]
  TGI: 47.2 µM
[53]
  TGI: > 100 µM
[36]
  TGI: > 100 µM
[55]
  TGI: > 100 µM
[37]
  TGI: > 100 µM
[39]
  TGI: > 100 µM
[40]
  TGI: > 100 µM
[41]
  TGI: > 100 µM
[42]
  TGI: > 100 µM
[43]
  TGI: 79.4 µM
[44]
  TGI: > 100 µM
[45]
  TGI: > 100 µM
[46]
  TGI: > 100 µM

## O=C1NC2c3c(I)sc(I)c3/C(=N\O)C2O1 (stereo unspecified)
[1]
  TGI: 56.8 µM
[2]
  TGI: > 100 µM
[3]
  TGI: 70.4 µM
[47]
  TGI: > 100 µM
[4]
  TGI: > 100 µM
[5]
  TGI: > 100 µM
[6]
  TGI: 95.8 µM
[56]
  TGI: > 100 µM
[7]
  TGI: > 100 µM
[8]
  TGI: 47.7 µM
[9]
  TGI: > 100 µM
[10]
  TGI: > 100 µM
[11]
  TGI: 89.8 µM
[12]
  TGI: 58.2 µM
[13]
  TGI: > 100 µM
[14]
  TGI: > 100 µM
[15]
  TGI: > 100 µM
[16]
  TGI: 76.9 µM
[48]
  TGI: > 100 µM
[49]
  TGI: 35.1 µM
[17]
  TGI: > 100 µM
[18]
  TGI: > 100 µM
[19]
  TGI: > 100 µM
[50]
  TGI: 45 µM
[51]
  TGI: > 100 µM
[57]
  TGI: 42.6 µM
[21]
  TGI: > 100 µM
[22]
  TGI: 48.8 µM
[23]
  TGI: > 100 µM
[24]
  TGI: 43.4 µM
[25]
  TGI: > 100 µM
[26]
  TGI: 68.1 µM
[27]
  TGI: > 100 µM
[28]
  TGI: 33.6 µM
[29]
  TGI: > 100 µM
[30]
  TGI: 75.4 µM
[31]
  TGI: > 100 µM
[32]
  TGI: > 100 µM
[33]
  TGI: > 100 µM
[34]
  TGI: 67.8 µM
[52]
  TGI: 57.1 µM
[35]
  TGI: > 100 µM
[53]
  TGI: 50.2 µM
[54]
  TGI: > 100 µM
[36]
  TGI: 60.6 µM
[55]
  TGI: 83.5 µM
[37]
  TGI: 32.7 µM
[39]
  TGI: 40.2 µM
[40]
  TGI: > 100 µM
[41]
  TGI: > 100 µM
[42]
  TGI: 33.4 µM
[58]
  TGI: > 100 µM
[43]
  TGI: > 100 µM
[44]
  TGI: > 100 µM
[45]
  TGI: 80.3 µM
[46]
  TGI: 44.5 µM

## COC(=O)Cc1cccc2c1CCC2=O
[1]
  TGI: > 100 µM
[2]
  TGI: > 100 µM
[3]
  TGI: > 100 µM
[4]
  TGI: > 100 µM
[5]
  TGI: > 100 µM
[6]
  TGI: > 100 µM
[56]
  TGI: > 100 µM
[7]
  TGI: > 100 µM
[8]
  TGI: > 100 µM
[9]
  TGI: > 100 µM
[10]
  TGI: > 100 µM
[11]
  TGI: > 100 µM
[12]
  TGI: > 100 µM
[13]
  TGI: > 100 µM
[14]
  TGI: > 100 µM
[15]
  TGI: > 100 µM
[16]
  TGI: > 100 µM
[48]
  TGI: > 100 µM
[49]
  TGI: > 100 µM
[17]
  TGI: > 100 µM
[18]
  TGI: > 100 µM
[19]
  TGI: > 100 µM
[20]
  TGI: > 100 µM
[50]
  TGI: > 100 µM
[51]
  TGI: > 100 µM
[57]
  TGI: > 100 µM
[21]
  TGI: > 100 µM
[22]
  TGI: > 100 µM
[23]
  TGI: > 100 µM
[24]
  TGI: > 100 µM
[25]
  TGI: > 100 µM
[26]
  TGI: > 100 µM
[27]
  TGI: > 100 µM
[28]
  TGI: > 100 µM
[29]
  TGI: > 100 µM
[30]
  TGI: > 100 µM
[31]
  TGI: > 100 µM
[32]
  TGI: > 100 µM
[33]
  TGI: > 100 µM
[34]
  TGI: > 100 µM
[52]
  TGI: > 100 µM
[35]
  TGI: > 100 µM
[53]
  TGI: > 100 µM
[54]
  TGI: > 100 µM
[36]
  TGI: > 100 µM
[55]
  TGI: > 100 µM
[37]
  TGI: > 100 µM
[38]
  TGI: > 100 µM
[39]
  TGI: > 100 µM
[40]
  TGI: > 100 µM
[41]
  TGI: > 100 µM
[42]
  TGI: > 100 µM
[43]
  TGI: > 100 µM
[44]
  TGI: > 100 µM
[45]
  TGI: > 100 µM
[46]
  TGI: > 100 µM
